Reference: patent US20230130103A1, “TARGETED PHARMACOLOGICAL THERAPEUTICS IN UVEAL MELANOMA” (Washington University, priority 2017, published 2023)
Starred links: 1 amine or outer side, 2 acyl side, 3 side chain; linkers in the order of their positions; H or OH if unused. Positions of bridges follow the written chain, without caps; N, C: chain ends. Non-standard residues stand in square brackets, D forms with d. Residues, ends and D or L forms follow the SMILES beside them. *: point of attachment. Leu(3R-OH,Nα-propionyl) = CCC(=O)N[C@H](C(=O)*)[C@H](O)C(C)C; X1 = CC(C)[C@@H](O[*:3])[C@H](N[*:1])C(=O)[*:2]; X2 = CC(C)[C@H](O[*:3])[C@@H](N[*:1])C(=O)[*:2]; NMeaThr = CN[C@H](C(=O)O)[C@H](C)O; dPhLac = O=C(O)[C@H](O)Cc1ccccc1; NMeA = CN[C@@H](C)C(=O)O; NMeDha = C=C(NC)C(=O)O

System: 92.1 UM cells
Assay: Gene Set Enrichment Analysis (GSEA) of RNA-Seq data
Assay type: cell-based, Human
[1] = gene set #CAFFAREL_RESPONSE_TO_THC_DN
[2] = gene set ALCALAY_AML_BY_NPM1_LOCALIZATION_DN
[3] = gene set BASSO_[?]_LYMPHOCYTE_NETWORK
[4] = gene set CHIANG_LIVER_CANCER_SUBCLASS_UNANNOTATED_DN
[5] = gene set CHICAS_RB1_TARGETS_GROWING
[6] = gene set CHICAS_RB1_TARGETS_SENESCENT
[7] = gene set DOUGLAS_[?]_TARGETS_UP
[8] = gene set ELVIDGE_HIF1A_TARGETS_UP
[9] = gene set FERRANDO_T_ALL_WITH_MLL_ENL_FUSION_DN
[10] = gene set FOURNIER_ACINAR_DEVELOPMENT_LATE_DN
[11] = gene set GARCIA_TARGETS_OF_FL[?]_AND_DAX1_DN
[12] = gene set GROSS_HYPOXIA_VIA_ELK3_UP
[13] = gene set GRUETZMANN_PANCREATIC_CANCER_UP
[14] = gene set IVANOVA_HEMATOPOIESIS_LATE_PROGENITOR
[15] = gene set JOHNSTONE_PARVES_TARGETS_2_DN
[16] = gene set KEGG_AMINO_SUGAR_AND_NUCLEOTIDE_SUGAR_METABOLISM
[17] = gene set KEGG_CITRATE_CYCLE_TCA_CYCLE
[18] = gene set KEGG_FC_GAMMA_[?]_MEIATED_PHAGOCYTOSIS
[19] = gene set KEGG_PATHOGENIC_ESCHERICHIA_COLI_INFECTION
[20] = gene set LASTOWSKA_NEUROBLASTOMA_COPY_NUMBER_DN
[21] = gene set MARIADASON_REGULATED_BY_HISTONE_ACETYLATION_DN
[22] = gene set MARTINEZ_RESPONSE_TO_TRABECTEDIN_DN
[23] = gene set MEINHOLD_OVARIAN_CANCER_LOW_GRADE_DN
[24] = gene set ONDER_CDH1_TARGETS_1_DN
[25] = gene set OXFORD_RALA_OR_RALB_TARGETS_UP
[26] = gene set PEART_HDAC_PROLIFERATION_CLUSTER_DN
[27] = gene set PODAR_RESPONSE_TO_ADAPHOSTIN_DN
[28] = gene set PRAMOONIAGO_SOX4_TARGETS_DN
[29] = gene set PUIFFE_INVASION_INHIBITED_BY_ASCITES_UP
[30] = gene set REACTOME_ACTIVATION_OF_CHAPERONE_GENES_BY_XBP15

C=C1C(=O)N[C@@H](C)C(=O)N(C)[C@@H](C)C(=O)N[C@H]([C@@H](OC(=O)[C@@H](NC(=O)CC)[C@H](O)C(C)C)C(C)C)C(=O)N(C)[C@@H]([C@H](C)OC)C(=O)O[C@H](C(C)C)[C@H](NC(C)=O)C(=O)O[C@H](Cc2ccccc2)C(=O)N1C [FR, [(1S)-1-[(3S,6R,9S,12S,18R,21S,22R)-21-acetamido-18-benzyl-3-[(1S)-1-methoxyethyl]-4,9,10,12,16-pentamethyl-15-methylidene-2,5,8,11,14,17,20-heptaoxo-22-propan-2-yl-1,19-dioxa-4,7,10,13,16-pentazacyclodocos-6-yl]-2-methylpropyl] (2S,3R)-3-hydroxy-4-methyl-2-(propanoylamino)pentanoate] (Ac-[X1][dPhLac][NMeDha]A[NMeA][X2](Leu(3R-OH,Nα-propionyl))[NMeaThr](Me); ester 1-C)
ES [1]: 0.6253
NES [1]: 2.134
ES [2]: 0.4726
NES [2]: 2.261
ES [3]: 0.4691
NES [3]: 2.175
ES (gene set BENPORATH_ES_1): 0.3997
NES (gene set BENPORATH_ES_1): 2.093
ES (gene set BIOCARTA_RHO_PATHWAY): 0.6245
NES (gene set BIOCARTA_RHO_PATHWAY): 2.154
ES [4]: 0.4436
NES [4]: 2.13
ES [5]: 0.4131
NES [5]: 2.057
ES [6]: 0.4124
NES [6]: 2.254
ES (gene set CSR_EARLY_UP.V1_UP): 0.4601
NES (gene set CSR_EARLY_UP.V1_UP): 2.136
ES [7]: 0.3969
NES [7]: 2.179
ES [8]: 0.5452
NES [8]: 2.195
ES [9]: 0.5186
NES [9]: 2.174
ES [10]: 0.6475
NES [10]: 2.082
ES (gene set GABP_B): 0.419
NES (gene set GABP_B): 2.063
ES [11]: 0.4628
NES [11]: 2.153
ES [12]: 0.4432
NES [12]: 2.179
ES [13]: 0.393
NES [13]: 2.047
ES [14]: 0.4037
NES [14]: 2.155
ES (gene set JIANG_VHL_TARGETS): 0.4893
NES (gene set JIANG_VHL_TARGETS): 2.171
ES [15]: 0.4128
NES [15]: 2.133
ES [16]: 0.5976
NES [16]: 2.088
ES [17]: 0.6499
NES [17]: 2.188
ES [18]: 0.5262
NES [18]: 2.154
ES [19]: 0.5693
NES [19]: 2.167
ES [20]: 0.3819
NES [20]: 2.135
ES (gene set LINSLEY_MIR16_TARGETS): 0.4327
NES (gene set LINSLEY_MIR16_TARGETS): 2.092
ES (gene set LIN_APC_TARGETS): 0.5227
NES (gene set LIN_APC_TARGETS): 2.086
ES (gene set LY_AGING_PREMATURE_DN): 0.6267
NES (gene set LY_AGING_PREMATURE_DN): 2.103
ES [21]: 0.5871
NES [21]: 2.132
ES [22]: 0.4324
NES [22]: 2.184
ES [23]: 0.7218
NES [23]: 2.197
ES (gene set NPS14_DN.V1_DN): 0.4491
NES (gene set NPS14_DN.V1_DN): 2.133
ES [24]: 0.4845
NES [24]: 2.225
ES [25]: 0.544
NES [25]: 2.089
ES (gene set PBC2_EED_UP.V1_DN): 0.4268
NES (gene set PBC2_EED_UP.V1_DN): 2.076
ES [26]: 0.4996
NES [26]: 2.059
ES (gene set PIC_DCD42_REG_PATHWAY): 0.5968
NES (gene set PIC_DCD42_REG_PATHWAY): 2.051
ES (gene set PIC_E2F_PATHWAY): 0.5204
NES (gene set PIC_E2F_PATHWAY): 2.172
ES (gene set PIC_FANCONE_PATHWAY): 0.5661
NES (gene set PIC_FANCONE_PATHWAY): 2.097
ES (gene set PIC_FCER1_PATHWAY): 0.5656
NES (gene set PIC_FCER1_PATHWAY): 2.102
ES (gene set PID_PDGFRB_PATHWAY): 0.4862
NES (gene set PID_PDGFRB_PATHWAY): 2.232
ES (gene set PIO_AURORA_A_PATHWAY): 0.6657
NES (gene set PIO_AURORA_A_PATHWAY): 2.186
ES (gene set PIO_TCR_PATHWAY): 0.6
NES (gene set PIO_TCR_PATHWAY): 2.184
ES [27]: 0.6921
NES [27]: 2.117
ES [28]: 0.5652
NES [28]: 2.158
ES [29]: 0.5104
NES [29]: 2.126
ES (gene set RACTOME_IMMUNE_SYSTEM): 0.3664
NES (gene set RACTOME_IMMUNE_SYSTEM): 2.063
ES (gene set RB_P107_0N, L1_UP): 0.4941
NES (gene set RB_P107_0N, L1_UP): 2.216
ES [30]: 0.5859
NES [30]: 2.116
